Experimental data taken from patent publication US20150246087A1, “EXTRACTS AND THERAPEUTIC USES THEREOF” (REGENERA PHARMA LTD., priority 2012, published 2015).
“And” between values parts separate entries of the source, which are not always exact repeats. Equal values may be shown once.

Tests used:
3T3 cells = test: Cytotoxicity in 3T3 cells (XTT kit); type: cell-based; conditions: DMSO 10% control; 48 hr; single well of triplicate
Method: 3T3 cells (ATCC; CRL-1658) were seeded in a 96 well plate (4×10^3 cells per well), and 24 hr following cell adherence, cells were treated (in triplicate) with different concentrations (1-50 mg/ml) of the test items, or with the control items cottonseed oil alone, or 10% DMSO, or were left untreated. All treatments were introduced in a final volume of […] within a total volume of 100 μl/well. Cytotoxicity was determined 48 hr after additional of test items, using the XTT kit (Biological industries, Israel). Raw data was analyzed using Prism4 statistical software following blank reduction. The cottonseed oil vehicle treated control was used to calculate 100% viability and OD % was calculated.

ARPE-19 cells = test: Neuronal-like differentiation of ARPE-19 retinal pigment epithelial cell cultures; type: cell-based, human; conditions: 2-10% w/w in cottonseed oil, compared to vehicle control
Method: ARPE-19 cells (obtained from the American Type Culture Collection, ATCC) were plated in flat bottom 96 well tissue culture microplates (Costar) at a concentration of 2-5×10^3 cells per well (1-2.5×10^4 cells/mL) in a growth medium consisting of DMEM:Ham F-12, 1:1, supplemented with 10% Fetal Bovine Serum, […] glutamine, 100 units/mL penicillin and 100 μg/mL streptomycin. The cells were allowed to adhere to the plate surfaces overnight prior to treatment with either RPh-CY or RPh-SA.
RPh-CY and RPh-SA were prepared essentially as described in Examples 2 and 4 respectively, to provide 10% solutions in a carrier composed of grape seed oil, olive oil, cottonseed oil, and Mygliol® (Mygliol® 810 or Mygliol® 812). […]
The cultures were incubated in a 37° C., 5% CO2 incubator for 48 hr. The medium was then removed, the cultures washed twice with phosphate buffered saline (PBS), fixed with absolute methanol for 10 min and stained with Hemacolor® reagents (Boehringer Mannheim), which stain cells in a manner similar to Giemsa, and may be used in a quantitative cell viability assay (see Keisari, Y. A colorimetric microtiter assay for the quantitation of cytokine activity on adherent cells in tissue culture. J. Immunol. Methods 146, 155-161, 1992). […]

Structure (SMILES) | OD at 450 (XTT) (3T3 cells) | change in ARPE-19 RPE cells (neurodifferentiation assay) (ARPE-19 cells)
C[S+](C)[O-] [DMSO] | 0.238 and 0.233 and 0.234 | 
CC(C)c1c(O)ccc2c1CC[C@H]1C(C)(C)CCC[C@]21C [totarol] |  | induced no change
